Patent US20250295777A1, “HOMEOPATHIC PHARMACEUTICAL COMPOSITION FOR TREATING UPPER AND LOWER RESPIRATORY TRACT DISEASES” (priority 2022, published 2025)
Structures can show the parent of a compound that is named as a salt. Where two headings read alike, the source gives them in different places.

Experiments:
[1] = test system: upper respiratory tract ciliated epithelium cilia; assay: beating frequency of the ciliated epithelium cilia (in vitro, test sample vs isotonic NaCl control); format: cell-based, human (patients)
Description: (§1) To determine the efficiency of mucociliary clearance, the authors of the present invention measured the frequency (Frequency) and period (Time) of the upper respiratory tract ciliated epithelium cilia beating using methods for determining these parameters that are well known to persons skilled in the art and have been repeatedly described in the prior art. The authors of the invention took into account that sufficient functioning of the ciliated epithelium cilia is the most important parameter of the effectiveness of mucociliary clearance (Duchateau G S M J E, Graamans K., Zuidema J., Merkus F W H M.—Laryngoscope 1985; 95:854-859), and, therefore, they measured the percentage of ciliated epithelium cells with motile cilia (Movement). Non-limiting (illustrative) examples of methods for determining the parameters of the upper respiratory tract ciliated epithelium cilia beating are given in V. V. Shabalin et al., Biophysical Methods for Studying Mucociliary Transport of the Normal and Pathological Upper and Lower Respiratory Tract.—See in Problems of Therapeutic and Surgical Pulmonology, collection of conference materials, Saint Petersburg, 1997, pp. 44-45.
(§2) The effect of the composition of the invention on the performance of the ciliated epithelium cilia and the lifespan of the ciliated epithelium was studied in comparison with separate components (Apis mellifica, Eupharsia officinalis, Allium cepa, Tatrarus stibiatus, Hepar sulphur, and Arnica montana separately), with the composition according to patent RU 2748548 and with an isotonic NaCl solution (0.9% solution).
(§3) The study included patients with acute and chronic rhinosinusitis, as well as patients without a history of otolaryngological disorders.
(§4) It is well known to persons skilled in the art that the optimal medium for the ciliated epithelium functioning is a saline (0.9% NaCl solution) and that this medium allows the ciliated epithelium cells to move synchronously and live the longest; therefore, ciliated epithelium treated with a saline was used as a control.
(§5) The results include the following parameters: • Frequency 1, Hz—the beating frequency of the ciliated epithelium cilia in the test sample, • Frequency 2, Hz—the beating frequency of the ciliated epithelium cilia in the control (isotonic NaCl solution), • Time 1, min—lifespan of the ciliated epithelium cilia in the test sample, • Time 2, min—lifespan of the ciliated epithelium cilia in the control.

[2] = test system: upper respiratory tract ciliated epithelium; assay: lifespan of the ciliated epithelium cilia / cell survival time in vitro (test sample vs isotonic NaCl control); format: cell-based, human (patients)
Description: as §1, §2, §3, §4, §5

[3] = test system: ciliated epithelium (upper respiratory tract epithelium cilia); conditions: cited from earlier work
[4] = average values over 5 patients / dilutions D3-C30
[5] = dilution C3, single patient sample
[6] = dilution C6, single patient sample
[7] = dilution C30, single patient sample
[8] = dilution D3, single patient sample
[9] = dilution D6, single patient sample

## O.O.O.O=C([O-])[C@H]([O-])[C@@H]([O-])C(=O)[O-].O=C([O-])[C@H]([O-])[C@@H]([O-])C(=O)[O-].[K+].[K+].[Sb+3].[Sb+3] [Tartarus stibiatus, tartrate of antimony and potassium]
[1]; [4]
  Frequency 1, Hz (beating frequency of the ciliated epithelium cilia in the test sample): 5.2134 Hz
[1]; [5]
  Frequency 1, Hz (beating frequency of the ciliated epithelium cilia in the test sample): 6.503 Hz
[1]; [6]
  Frequency 1, Hz (beating frequency of the ciliated epithelium cilia in the test sample): 5.283 Hz
[1]; [7]
  Frequency 1, Hz (beating frequency of the ciliated epithelium cilia in the test sample): 4.092 Hz
[1]; [8]
  Frequency 1, Hz (beating frequency of the ciliated epithelium cilia in the test sample): 5.177 Hz
[1]; [9]
  Frequency 1, Hz (beating frequency of the ciliated epithelium cilia in the test sample): 5.012 Hz
[2]; [4]
  Time 1, min (lifespan of the ciliated epithelium cilia in the test sample): 24.6 min
[2]; [5]
  Time 1, min (lifespan of the ciliated epithelium cilia in the test sample): 28 min
[2]; [6]
  Time 1, min (lifespan of the ciliated epithelium cilia in the test sample): 20 min
[2]; [7]
  Time 1, min (lifespan of the ciliated epithelium cilia in the test sample): 28 min
[2]; [8]
  Time 1, min (lifespan of the ciliated epithelium cilia in the test sample): 27 min
[2]; [9]
  Time 1, min (lifespan of the ciliated epithelium cilia in the test sample): 20 min

## neomycin
[3]
  ciliary beat frequency (CBF) reduced by: 82%

## Cc1cc(C(C)(C)C)cc(C)c1CC1=NCCN1 [xylometazoline hydrochloride]
[3]; 0.1% solution
  ciliary beat frequency (CBF) reduced by: 69%

## C[C@@H]1CN([C@H]2CC[C@](C#N)(c3ccc(F)cc3)CC2)CC[C@]1(C(=O)O)c1ccccc1 [levocabastine]
[3]
  ciliary beat frequency (CBF) reduced by: 13%

## CC(C)(O)C(Cl)(Cl)Cl [chlorbutol]
[3]
  ciliary beat frequency (CBF) reduced by: 100%

## C[CH2][Hg][S]c1ccccc1C(=O)[O-].[Na+] [thiomersal]
[3]
  ciliary beat frequency (CBF) reduced by: 100%
